Columns and labels:
[1] = target: Serine/threonine-protein kinase DCLK1 (Homo sapiens) (UniProt O15075); details: Compound concentration 1000.0 nM
[2] = target: Ephrin type-A receptor 7 (Homo sapiens) (UniProt Q15375); details: Compound concentration 1000.0 nM
[3] = target: Dual specificity mitogen-activated protein kinase kinase 5 (Homo sapiens) (UniProt Q13163); details: Compound concentration 1000.0 nM
[4] = target: Phosphorylase b kinase regulatory subunit alpha, liver isoform (Homo sapiens) (UniProt P46019); details: Compound concentration 1000.0 nM
[5] = target: Cyclin-G-associated kinase (Homo sapiens) (UniProt O14976); details: Compound concentration 1000.0 nM
[6] = target: Activin receptor type-1B (Homo sapiens) (UniProt P36896); details: Compound concentration 1000.0 nM
[7] = target: Ribosomal protein S6 kinase alpha-3 (Homo sapiens) (UniProt P51812); details: Compound concentration 1000.0 nM
[8] = target: Dual specificity tyrosine-phosphorylation-regulated kinase 2 (Homo sapiens) (UniProt Q92630); details: Compound concentration 1000.0 nM
[9] = target: Interleukin-1 receptor-associated kinase 4 (Homo sapiens) (UniProt Q9NWZ3); details: Compound concentration 1000.0 nM
[10] = target: Cyclin-dependent kinase 15 (Homo sapiens) (UniProt Q96Q40); details: Compound concentration 1000.0 nM
[11] = target: MAP kinase-activated protein kinase 5 (Homo sapiens) (UniProt Q8IW41); details: Compound concentration 1000.0 nM
[12] = target: Mitogen-activated protein kinase kinase kinase 7 (Homo sapiens) (UniProt O43318); details: Compound concentration 1000.0 nM
[13] = target: Serine/threonine-protein kinase 26 (Homo sapiens) (UniProt Q9P289); details: Compound concentration 1000.0 nM
[14] = target: Tyrosine-protein kinase JAK1 (Homo sapiens) (UniProt P23458); details: Compound concentration 1000.0 nM
[15] = target: Phosphatidylinositol 3-kinase C2 domain-containing subunit gamma (Homo sapiens) (UniProt O75747); details: Compound concentration 1000.0 nM
[16] = target: SRSF protein kinase 1 (Homo sapiens) (UniProt Q96SB4); details: Compound concentration 1000.0 nM
[17] = target: Dual specificity mitogen-activated protein kinase kinase 7 (Homo sapiens) (UniProt O14733); details: Compound concentration 1000.0 nM
[18] = target: Mitogen-activated protein kinase 13 (Homo sapiens) (UniProt O15264); details: Compound concentration 1000.0 nM
[19] = target: Serine/threonine-protein kinase Nek6 (Homo sapiens) (UniProt Q9HC98); details: Compound concentration 1000.0 nM
[20] = target: Serine/threonine-protein kinase Nek4 (Homo sapiens) (UniProt P51957); details: Compound concentration 1000.0 nM
[21] = target: 5-hydroxytryptamine receptor 1B (Homo sapiens) (UniProt P28222); details: Compound concentration 10.0 uM
[22] = target: Activin receptor type-2B (Homo sapiens) (UniProt Q13705); details: Compound concentration 1000.0 nM
[23] = target: Serine/threonine-protein kinase tousled-like 1 (Homo sapiens) (UniProt Q9UKI8); details: Compound concentration 1000.0 nM
[24] = target: Calcium/calmodulin-dependent protein kinase type II subunit gamma (Homo sapiens) (UniProt Q13555); details: Compound concentration 1000.0 nM
[25] = target: Protein kinase C iota type (Homo sapiens) (UniProt P41743); details: Compound concentration 1000.0 nM
[26] = target: Tyrosine-protein kinase Fes/Fps (Homo sapiens) (UniProt P07332); details: Compound concentration 1000.0 nM
[27] = target: Tyrosine-protein kinase Mer (Homo sapiens) (UniProt Q12866); details: Compound concentration 1000.0 nM
[28] = target: Serine/threonine-protein kinase 4 (Homo sapiens) (UniProt Q13043); details: Compound concentration 1000.0 nM
[29] = target: Ankyrin repeat and protein kinase domain-containing protein 1 (Homo sapiens) (UniProt Q8NFD2); details: Compound concentration 1000.0 nM
[30] = target: Serine/threonine-protein kinase OSR1 (Homo sapiens) (UniProt O95747); details: Compound concentration 1000.0 nM
[31] = target: Cyclin-dependent kinase 4 (Homo sapiens) (UniProt P11802); details: Compound concentration 1000.0 nM
[32] = target: Substance-P receptor (Homo sapiens) (UniProt P25103); assay: NK1 (h) Eurofins-Cerep Cellular and Nuclear Receptor Functional Assays; details: Compound concentration 10.0 uM
[33] = target: Casein kinase II subunit alpha (Homo sapiens) (UniProt P68400); details: Compound concentration 1000.0 nM
[34] = target: Cyclin-dependent kinase 5 (Homo sapiens) (UniProt Q00535); details: Compound concentration 1000.0 nM
[35] = target: T1, Prostaglandin E2 receptor EP3 subtype (Homo sapiens) (UniProt P43115); assay: EP3 (h) Eurofins-Cerep Cellular and Nuclear Receptor Functional Assays; details: Compound concentration 10.0 uM
T1 sequence (whole entry): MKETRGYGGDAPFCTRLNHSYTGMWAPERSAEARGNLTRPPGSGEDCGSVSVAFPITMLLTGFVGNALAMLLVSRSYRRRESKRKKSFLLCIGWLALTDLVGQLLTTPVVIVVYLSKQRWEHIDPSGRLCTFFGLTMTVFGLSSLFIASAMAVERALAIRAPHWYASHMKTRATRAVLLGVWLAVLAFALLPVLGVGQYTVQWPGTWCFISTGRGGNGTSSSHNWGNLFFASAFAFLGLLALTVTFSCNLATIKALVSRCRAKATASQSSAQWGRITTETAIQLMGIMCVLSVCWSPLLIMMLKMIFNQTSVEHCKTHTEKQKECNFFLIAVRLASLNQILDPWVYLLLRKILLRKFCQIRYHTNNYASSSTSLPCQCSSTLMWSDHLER

[36] = target: Cyclin-dependent kinase 11B (Homo sapiens) (UniProt P21127); details: Compound concentration 1000.0 nM
[37] = target: Serine/threonine-protein kinase PLK1 (Homo sapiens) (UniProt P53350); details: Compound concentration 1000.0 nM
[38] = target: Dual specificity testis-specific protein kinase 1 (Homo sapiens) (UniProt Q15569); details: Compound concentration 1000.0 nM
[39] = target: Serine/threonine-protein kinase WNK4 (Homo sapiens) (UniProt Q96J92); details: Compound concentration 1000.0 nM

Sequence of Substance-P receptor (Homo sapiens) (P25103 whole entry): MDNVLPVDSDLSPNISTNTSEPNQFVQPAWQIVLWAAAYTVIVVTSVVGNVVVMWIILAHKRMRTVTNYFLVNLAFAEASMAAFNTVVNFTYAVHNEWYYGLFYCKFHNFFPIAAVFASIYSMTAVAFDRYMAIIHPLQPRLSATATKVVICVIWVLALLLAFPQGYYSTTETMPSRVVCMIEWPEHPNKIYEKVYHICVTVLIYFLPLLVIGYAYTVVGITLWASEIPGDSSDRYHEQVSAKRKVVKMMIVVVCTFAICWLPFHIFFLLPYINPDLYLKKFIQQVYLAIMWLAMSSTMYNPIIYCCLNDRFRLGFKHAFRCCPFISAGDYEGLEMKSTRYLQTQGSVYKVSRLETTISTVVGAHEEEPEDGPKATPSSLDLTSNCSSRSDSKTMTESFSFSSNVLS
Sequence of Phosphorylase b kinase regulatory subunit alpha, liver isoform (Homo sapiens) (P46019 whole entry, canonical isoform): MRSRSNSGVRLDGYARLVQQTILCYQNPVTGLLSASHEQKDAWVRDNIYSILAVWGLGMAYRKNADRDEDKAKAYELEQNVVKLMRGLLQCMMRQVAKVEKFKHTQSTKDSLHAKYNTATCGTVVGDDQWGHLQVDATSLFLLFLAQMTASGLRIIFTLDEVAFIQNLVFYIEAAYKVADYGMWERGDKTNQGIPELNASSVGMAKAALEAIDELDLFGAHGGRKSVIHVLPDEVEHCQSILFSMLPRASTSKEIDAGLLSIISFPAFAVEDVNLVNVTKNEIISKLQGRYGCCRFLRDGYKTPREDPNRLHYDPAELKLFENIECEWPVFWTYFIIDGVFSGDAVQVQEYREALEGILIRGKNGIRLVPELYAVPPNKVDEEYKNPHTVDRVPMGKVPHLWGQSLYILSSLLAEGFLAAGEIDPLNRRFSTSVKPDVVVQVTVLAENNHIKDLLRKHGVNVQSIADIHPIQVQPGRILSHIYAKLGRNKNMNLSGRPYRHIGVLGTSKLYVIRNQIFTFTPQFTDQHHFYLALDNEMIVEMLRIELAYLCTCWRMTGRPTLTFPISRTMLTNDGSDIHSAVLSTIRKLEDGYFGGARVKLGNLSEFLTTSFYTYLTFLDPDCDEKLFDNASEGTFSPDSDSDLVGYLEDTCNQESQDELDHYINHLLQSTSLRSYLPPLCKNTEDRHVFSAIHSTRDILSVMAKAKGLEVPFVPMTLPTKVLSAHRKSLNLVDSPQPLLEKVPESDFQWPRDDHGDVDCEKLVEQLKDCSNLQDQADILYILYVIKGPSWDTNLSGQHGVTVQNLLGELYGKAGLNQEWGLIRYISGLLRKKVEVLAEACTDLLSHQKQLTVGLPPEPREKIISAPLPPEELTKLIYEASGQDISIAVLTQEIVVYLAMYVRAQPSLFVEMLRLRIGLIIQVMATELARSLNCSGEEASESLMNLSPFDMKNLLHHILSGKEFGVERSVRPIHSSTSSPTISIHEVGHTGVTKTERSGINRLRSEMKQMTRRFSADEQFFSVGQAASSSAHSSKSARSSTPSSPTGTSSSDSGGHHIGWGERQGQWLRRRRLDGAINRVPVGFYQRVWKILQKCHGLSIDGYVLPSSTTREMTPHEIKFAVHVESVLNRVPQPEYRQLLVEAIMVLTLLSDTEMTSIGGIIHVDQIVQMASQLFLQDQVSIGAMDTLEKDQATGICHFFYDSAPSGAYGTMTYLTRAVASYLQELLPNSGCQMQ
Sequence of Mitogen-activated protein kinase 13 (Homo sapiens) (O15264 whole entry): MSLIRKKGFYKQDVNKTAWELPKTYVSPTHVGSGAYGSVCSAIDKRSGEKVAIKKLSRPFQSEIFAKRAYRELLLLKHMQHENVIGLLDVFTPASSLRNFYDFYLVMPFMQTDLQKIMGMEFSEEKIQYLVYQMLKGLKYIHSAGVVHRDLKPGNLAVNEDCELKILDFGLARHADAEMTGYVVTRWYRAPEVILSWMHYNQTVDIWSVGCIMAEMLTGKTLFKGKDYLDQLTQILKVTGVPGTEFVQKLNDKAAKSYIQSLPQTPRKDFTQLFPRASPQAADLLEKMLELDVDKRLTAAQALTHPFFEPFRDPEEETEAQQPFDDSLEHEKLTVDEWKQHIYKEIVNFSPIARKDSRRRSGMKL
Sequence of Dual specificity tyrosine-phosphorylation-regulated kinase 2 (Homo sapiens) (Q92630 whole entry): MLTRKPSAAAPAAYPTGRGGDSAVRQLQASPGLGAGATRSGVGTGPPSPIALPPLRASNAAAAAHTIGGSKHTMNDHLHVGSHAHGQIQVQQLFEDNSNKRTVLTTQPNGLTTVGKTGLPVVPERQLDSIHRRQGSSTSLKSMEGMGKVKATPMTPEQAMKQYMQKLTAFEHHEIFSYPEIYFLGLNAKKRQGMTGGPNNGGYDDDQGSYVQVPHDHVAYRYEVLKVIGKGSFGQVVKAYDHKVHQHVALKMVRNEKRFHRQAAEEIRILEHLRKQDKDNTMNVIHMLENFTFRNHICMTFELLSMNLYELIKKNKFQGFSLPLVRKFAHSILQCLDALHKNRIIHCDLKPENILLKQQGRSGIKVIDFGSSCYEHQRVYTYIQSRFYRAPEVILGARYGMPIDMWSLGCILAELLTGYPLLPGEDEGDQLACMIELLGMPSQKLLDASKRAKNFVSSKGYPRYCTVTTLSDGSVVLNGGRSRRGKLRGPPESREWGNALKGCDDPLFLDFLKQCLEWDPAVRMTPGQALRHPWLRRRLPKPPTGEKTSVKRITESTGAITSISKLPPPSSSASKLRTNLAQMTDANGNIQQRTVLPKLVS
Sequence of Phosphatidylinositol 3-kinase C2 domain-containing subunit gamma (Homo sapiens) (O75747 whole entry, the tested form may be a part): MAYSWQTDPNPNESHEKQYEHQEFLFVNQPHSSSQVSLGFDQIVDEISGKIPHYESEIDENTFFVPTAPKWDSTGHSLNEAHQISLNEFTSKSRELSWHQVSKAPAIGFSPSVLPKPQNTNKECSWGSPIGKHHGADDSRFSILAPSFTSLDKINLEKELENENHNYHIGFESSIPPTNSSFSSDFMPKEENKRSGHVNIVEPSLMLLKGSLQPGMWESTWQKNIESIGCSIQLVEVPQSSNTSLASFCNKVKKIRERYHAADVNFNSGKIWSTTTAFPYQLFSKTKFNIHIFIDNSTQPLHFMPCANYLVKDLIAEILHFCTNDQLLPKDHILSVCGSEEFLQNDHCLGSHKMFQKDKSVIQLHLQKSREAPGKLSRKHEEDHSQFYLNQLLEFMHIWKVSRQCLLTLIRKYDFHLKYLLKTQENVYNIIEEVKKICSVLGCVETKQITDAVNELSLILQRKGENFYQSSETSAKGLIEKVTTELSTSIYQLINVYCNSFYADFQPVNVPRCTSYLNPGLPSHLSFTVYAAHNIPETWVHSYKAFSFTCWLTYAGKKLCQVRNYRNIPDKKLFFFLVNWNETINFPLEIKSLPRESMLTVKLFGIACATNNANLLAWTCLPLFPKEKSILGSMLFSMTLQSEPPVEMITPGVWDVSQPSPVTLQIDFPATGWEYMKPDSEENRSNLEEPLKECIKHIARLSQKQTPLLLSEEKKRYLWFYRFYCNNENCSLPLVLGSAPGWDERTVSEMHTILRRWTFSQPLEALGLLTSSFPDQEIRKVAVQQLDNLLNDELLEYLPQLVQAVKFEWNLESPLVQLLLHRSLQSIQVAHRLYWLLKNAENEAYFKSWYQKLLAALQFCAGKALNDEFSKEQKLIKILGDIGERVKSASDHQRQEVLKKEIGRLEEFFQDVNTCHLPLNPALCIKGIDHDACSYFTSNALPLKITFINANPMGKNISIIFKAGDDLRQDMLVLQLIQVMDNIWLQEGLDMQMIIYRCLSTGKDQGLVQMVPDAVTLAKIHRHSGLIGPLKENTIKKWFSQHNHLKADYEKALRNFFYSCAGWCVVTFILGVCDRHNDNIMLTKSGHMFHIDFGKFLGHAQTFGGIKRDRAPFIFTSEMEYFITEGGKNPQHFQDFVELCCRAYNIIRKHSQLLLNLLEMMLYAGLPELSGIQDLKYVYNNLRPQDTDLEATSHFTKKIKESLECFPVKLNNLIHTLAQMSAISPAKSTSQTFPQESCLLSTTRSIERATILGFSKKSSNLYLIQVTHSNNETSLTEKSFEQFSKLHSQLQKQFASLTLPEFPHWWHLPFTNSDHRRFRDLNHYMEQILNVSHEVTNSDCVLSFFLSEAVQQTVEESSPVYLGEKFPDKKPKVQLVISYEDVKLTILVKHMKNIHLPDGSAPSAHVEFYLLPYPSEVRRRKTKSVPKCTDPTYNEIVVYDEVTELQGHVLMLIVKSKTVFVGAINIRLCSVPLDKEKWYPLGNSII
Sequence of Cyclin-dependent kinase 11B (Homo sapiens) (P21127 whole entry): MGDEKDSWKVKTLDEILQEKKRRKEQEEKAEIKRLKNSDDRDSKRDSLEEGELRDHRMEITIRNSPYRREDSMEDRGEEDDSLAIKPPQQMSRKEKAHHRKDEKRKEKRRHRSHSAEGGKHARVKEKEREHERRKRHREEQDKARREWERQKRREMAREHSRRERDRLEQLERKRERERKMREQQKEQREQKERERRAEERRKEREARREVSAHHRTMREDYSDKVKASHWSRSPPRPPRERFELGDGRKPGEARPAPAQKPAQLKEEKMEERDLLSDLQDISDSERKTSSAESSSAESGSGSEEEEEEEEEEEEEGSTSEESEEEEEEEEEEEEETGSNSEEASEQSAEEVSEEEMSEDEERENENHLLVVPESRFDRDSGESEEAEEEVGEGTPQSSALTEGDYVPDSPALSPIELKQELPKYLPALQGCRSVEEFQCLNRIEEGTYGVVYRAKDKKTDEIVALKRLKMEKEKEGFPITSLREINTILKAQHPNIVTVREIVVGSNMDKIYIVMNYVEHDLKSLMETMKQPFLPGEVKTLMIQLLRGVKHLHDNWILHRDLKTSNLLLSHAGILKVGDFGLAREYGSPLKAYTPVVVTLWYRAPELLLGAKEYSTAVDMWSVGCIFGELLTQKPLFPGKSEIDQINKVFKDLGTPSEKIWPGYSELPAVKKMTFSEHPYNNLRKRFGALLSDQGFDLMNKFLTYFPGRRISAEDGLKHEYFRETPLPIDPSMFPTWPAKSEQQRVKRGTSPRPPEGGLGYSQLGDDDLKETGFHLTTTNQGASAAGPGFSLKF

Structure (SMILES): O=C(N1CCS(=O)(=O)CC1)N1C[C@H](c2ccc(OC(F)(F)F)cc2)C[C@H](c2nc(C3CC3)no2)C1 [BAY-386]
- residual activity [1]: 100%
- residual activity [2]: 96%
- residual activity [3]: 100%
- residual activity [4]: 100%
- residual activity [5]: 100%
- residual activity [6]: 100%
- residual activity [7]: 100%
- residual activity [8]: 100%
- residual activity [9]: 80%
- residual activity [10]: 100%
- residual activity [11]: 94%
- residual activity [12]: 100%
- residual activity [13]: 94%
- residual activity [14]: 88%
- residual activity [15]: 93%
- residual activity [16]: 100%
- residual activity [17]: 100%
- residual activity [18]: 100%
- residual activity [19]: 98%
- residual activity [20]: 100%
- inhibition [21]: 30.8%
- residual activity [22]: 86%
- residual activity [23]: 94%
- residual activity [24]: 100%
- residual activity [25]: 100%
- residual activity [26]: 100%
- residual activity [27]: 100%
- residual activity [28]: 100%
- residual activity [29]: 100%
- residual activity [30]: 100%
- residual activity [31]: 88%
- % Inhibition of Control Agonist Response (Mean n=2) [32]: 23.3%
- % of Control Agonist Response (Mean n=2) [32]: 1.8%
- residual activity [33]: 100%
- residual activity [34]: 83%
- % Inhibition of Control Agonist Response (Mean n=2) [35]: -8%
- % of Control Agonist Response (Mean n=2) [35]: 4.5%
- residual activity [36]: 100%
- residual activity [37]: 91%
- residual activity [38]: 100%
- residual activity [39]: 100%

Structure (SMILES): Cc1noc([C@H]2C[C@@H](c3ccc(C(F)(F)F)cc3)CN(C(=O)N3CCS(=O)(=O)C3)C2)n1 [BAY-448]
- residual activity [1]: 75%
- residual activity [2]: 100%
- residual activity [3]: 78%
- residual activity [4]: 100%
- residual activity [5]: 97%
- residual activity [6]: 100%
- residual activity [7]: 100%
- residual activity [8]: 100%
- residual activity [9]: 83%
- residual activity [10]: 100%
- residual activity [11]: 100%
- residual activity [12]: 100%
- residual activity [13]: 74%
- residual activity [14]: 98%
- residual activity [15]: 90%
- residual activity [16]: 100%
- residual activity [17]: 100%
- residual activity [18]: 100%
- residual activity [19]: 100%
- residual activity [20]: 82%
- inhibition [21]: 4.16%
- residual activity [22]: 100%
- residual activity [23]: 100%
- residual activity [24]: 100%
- residual activity [25]: 100%
- residual activity [26]: 100%
- residual activity [27]: 100%
- residual activity [28]: 100%
- residual activity [29]: 100%
- residual activity [30]: 89%
- residual activity [31]: 100%
- % Inhibition of Control Agonist Response (Mean n=2) [32]: 2.1%
- % of Control Agonist Response (Mean n=2) [32]: 0.3%
- residual activity [33]: 86%
- residual activity [34]: 100%
- % Inhibition of Control Agonist Response (Mean n=2) [35]: 0.6%
- % of Control Agonist Response (Mean n=2) [35]: -0.6%
- residual activity [36]: 100%
- residual activity [37]: 81%
- residual activity [38]: 91%
- residual activity [39]: 100%

From ChEMBL document CHEMBL4507269, “Data for DCP probe BAY-386” (2021)
